Data published in patent US20210369615A1, “SOLID ORAL FORMULATIONS OF AMPHOTERICIN B” (iCo Therapeutics Inc., priority 2018, published 2021).
“And” between values parts separate entries of the source, which are not always exact repeats. Equal entries are not always repeated.

Assay: Phase 1 single dose escalation pharmacokinetic study, Amphotericin B in human plasma
Type: in vivo
Details: for Amphotericin B concentration: 800 mg dose
Protocol: A phase 1, randomized, double-blind, placebo-controlled, single dose escalation study was performed to evaluate the pharmacokinetic parameters after administration of a single dose of Formula 1A. 100 mg (FIG. 10A), 200 mg (FIG. 10B), 400 mg (FIG. 10C) and 800 mg (FIG. 10D) doses were investigated in this study.
For each dose, AmpB or a placebo was administered, and blood samples were obtained pre-dose, and post-dosing at 0.5 hr, 1 hr, 2 hr, 3 hr, 4 hr, 6 hr, 8 hr, 10 hr, 12 hr, 24 hr, 36 hr, 48 hr, 60 hr, 72 hr, 144 hr, and 192 hr. Pharmacokinetic analysis was performed using Phoenix™ WinNonlin® (Pharsight Corporation). Doses and sampling times were entered as provided by the sponsor. Dose normalised parameters, and descriptive statistics were calculated using Phoenix™ WinNonlin®.
Where Ct is the last measurable concentration and Kel is the elimination rate constant estimated using log-linear regression during the terminal elimination phase. • t½: Elimination half-life, determined by ln(2)/Kel • CL/f: Observed Systemic clearance, calculated as dose/AUC • Vz: Observed Volume of distribution during the terminal phase, calculated as CL/Kel

[1] = single 100 mg dose (Formula 1A), Geometric Mean, N 6
[2] = single 100 mg dose (Formula 1A), Mean, N 6
[3] = single 100 mg dose (Formula 1A), Median, N 6
[4] = single 100 mg dose (Formula 1A), individual subjects A, B, C, D, F, H
[5] = single 200 mg dose (Formula 1A), Geometric Mean, N 6
[6] = single 200 mg dose (Formula 1A), Mean, N 6
[7] = single 200 mg dose (Formula 1A), Median, N 6
[8] = single 200 mg dose (Formula 1A), individual subjects I, 3, K, M, N, P
[9] = single 400 mg dose (Formula 1A), Geometric Mean, N 6
[10] = single 400 mg dose (Formula 1A), Mean, N 6
[11] = single 400 mg dose (Formula 1A), Median, N 6
[12] = single 400 mg dose (Formula 1A), individual subjects R, S, T, U, V, W

C[C@@H]1[C@H](O)[C@@H](C)/C=C/C=C/C=C/C=C/C=C/C=C/C=C/[C@H](O[C@@H]2O[C@H](C)[C@@H](O)[C@H](N)[C@@H]2O)C[C@@H]2O[C@](O)(C[C@@H](O)C[C@@H](O)[C@H](O)CC[C@@H](O)C[C@@H](O)CC(=O)O[C@H]1C)C[C@H](O)[C@H]2C(=O)O [Amphotericin B]
Amphotericin B concentration (nominal hour 0.5, individual subjects): BQL | Amphotericin B concentration (nominal hour 1, individual subjects): 0.791 ng/mL and BQL (5×) | Amphotericin B concentration (nominal hour 2, individual subjects): 7.683 ng/mL and 8.234 ng/mL and 2.414 ng/mL and 5.164 ng/mL and 3.206 ng/mL and 4.175 ng/mL | Amphotericin B concentration (nominal hour 4, individual subjects): 16.397 ng/mL and 28.318 ng/mL and 18.814 ng/mL and 17.942 ng/mL and 23.486 ng/mL and 20.176 ng/mL | Amphotericin B concentration (nominal hour 6, individual subjects): 29.902 ng/mL and 40.067 ng/mL and 30.628 ng/mL and 24.140 ng/mL and 33.962 ng/mL and 31.375 ng/mL | Amphotericin B concentration (nominal hour 8, individual subjects): 22.535 ng/mL and 31.543 ng/mL and 30.838 ng/mL and 27.279 ng/mL and 39.722 ng/mL and 22.816 ng/mL | Amphotericin B concentration (nominal hour 10, individual subjects): 21.595 ng/mL and 29.990 ng/mL and 25.996 ng/mL and 32.914 ng/mL and 42.805 ng/mL and 22.226 ng/mL | Amphotericin B concentration (nominal hour 12, individual subjects): 21.001 ng/mL and 31.865 ng/mL and 22.810 ng/mL and 27.866 ng/mL and 40.021 ng/mL and 21.390 ng/mL | Amphotericin B concentration (nominal hour 24, individual subjects): 16.218 ng/mL and 14.674 ng/mL and 23.607 ng/mL and 14.816 ng/mL and 19.124 ng/mL and 26.064 ng/mL | Amphotericin B concentration (nominal hour 36, individual subjects): 10.661 ng/mL and 16.074 ng/mL and 13.715 ng/mL and 9.365 ng/mL and 12.504 ng/mL and 19.218 ng/mL | Amphotericin B concentration (nominal hour 48, individual subjects): 6.472 ng/mL and 12.880 ng/mL and 12.291 ng/mL and 7.395 ng/mL and 8.947 ng/mL and 13.166 ng/mL | Amphotericin B concentration (nominal hour 63, individual subjects): 6.398 ng/mL and 10.642 ng/mL and 7.859 ng/mL and 3.935 ng/mL and 6.865 ng/mL and 9.972 ng/mL | Amphotericin B concentration (nominal hour 72, individual subjects): 5.044 ng/mL and 10.165 ng/mL and 6.793 ng/mL and 2.412 ng/mL and 3.808 ng/mL and 8.297 ng/mL | Amphotericin B concentration (nominal hour 144, individual subjects): 0.539 ng/mL and 2.254 ng/mL and 1.380 ng/mL and 0.329 ng/mL and 0.518 ng/mL and 1.905 ng/mL | Amphotericin B concentration (nominal hour 192, individual subjects): BQL (3×) and 0.726 ng/mL and 0.132 ng/mL and 0.243 ng/mL | Amphotericin B concentration (pre-dose, individual subjects): BQL | % AUCexp [1]: 16.37% | AUCO-inf [1]: 1.15507 µg·h/mL | AUCO-t [1]: 0.86575 µg·h/mL | CL/F [1]: 86574.82 mL/h | Cmax [1]: 0.02945 µg/mL | Kel [1]: 0.02 h⁻¹ | Tmax [1]: 6.00 h | T½ [1]: 28.42 h | V/F [1]: 3549117.10 mL | % AUCexp [2]: 23.01% | AUCO-inf [2]: 1.32945 µg·h/mL | AUCO-t [2]: 0.91251 µg·h/mL | CL/F [2]: 96064.72 mL/h | Cmax [2]: 0.03022 µg/mL | Kel [2]: 0.03 h⁻¹ | Tmax [2]: 6.00 h | T½ [2]: 31.80 h | V/F [2]: 3656853.27 mL | % AUCexp [3]: 16.74% | AUCO-inf [3]: 1.0298 µg·h/mL | AUCO-t [3]: 0.75965 µg·h/mL | CL/F [3]: 102549.85 mL/h | Cmax [3]: 0.02802 µg/mL | Kel [3]: 0.03 h⁻¹ | Tmax [3]: 6.00 h | T½ [3]: 27.27 h | V/F [3]: 3591414.60 mL | % AUCexp [4]: 12.17% and 44.38% and 21.32% and 9.08% and 47.20% and 3.91% | AUCO-inf [4]: 0.7239 µg·h/mL and 1.36229 µg·h/mL and 1.26706 µg·h/mL and 0.78816 µg·h/mL and 3.04277 µg·h/mL and 0.79254 µg·h/mL | AUCO-t [4]: 0.63582 µg·h/mL and 0.75771 µg·h/mL and 0.99695 µg·h/mL and 0.71657 µg·h/mL and 1.60643 µg·h/mL and 0.76159 µg·h/mL | CL/F [4]: 138140.40 mL/h and 73405.78 mL/h and 78922.85 mL/h and 126877.64 mL/h and 32864.80 mL/h and 126176.85 mL/h | Cmax [4]: 0.02266 µg/mL and 0.02441 µg/mL and 0.03005 µg/mL and 0.02598 µg/mL and 0.04357 µg/mL and 0.03467 µg/mL | Kel [4]: 0.03 1/hr and 0.01 1/hr (2×) and 0.02 1/hr and 0.04 1/hr and 0.05 1/hr | Tmax [4]: 6.00 h | T½ [4]: 22.60 h and 47.37 h and 31.94 h and 19.37 h and 55.13 h and 14.42 h | V/F [4]: 4503070.74 mL and 5016960.70 mL and 3637239.70 mL and 3545589.51 mL and 2613781.85 mL and 2624477.13 mL | % AUCexp [5]: 13.76% | AUCO-inf [5]: 1.04021 µg·h/mL | AUCO-t [5]: 0.82265 µg·h/mL | CL/F [5]: 192268.01 mL/h | Cmax [5]: 0.02866 µg/mL | Kel [5]: 0.03 h⁻¹ | Tmax [5]: 6.29 h | T½ [5]: 25.39 h | V/F [5]: 7043125.41 mL | % AUCexp [6]: 19.01% | AUCO-inf [6]: 1.06659 µg·h/mL | AUCO-t [6]: 0.85621 µg·h/mL | CL/F [6]: 197223.58 mL/h | Cmax [6]: 0.0297 µg/mL | Kel [6]: 0.03 h⁻¹ | Tmax [6]: 6.33 h | T½ [6]: 29.35 h | V/F [6]: 8022007.31 mL | % AUCexp [7]: 15.83% | AUCO-inf [7]: 1.06132 µg·h/mL | AUCO-t [7]: 0.80402 µg·h/mL | CL/F [7]: 189651.36 mL/h | Cmax [7]: 0.02862 µg/mL | Kel [7]: 0.03 h⁻¹ | Tmax [7]: 6.00 h | T½ [7]: 24.59 h | V/F [7]: 7174305.73 mL | % AUCexp [8]: 51.97% and 15.07% and 6.50% and 16.58% and 4.05% and 19.85% | AUCO-inf [8]: 1.24116 µg·h/mL and 1.14601 µg·h/mL and 1.43852 µg·h/mL and 0.73708 µg·h/mL and 0.86011 µg·h/mL and 0.97664 µg·h/mL | AUCO-t [8]: 0.59614 µg·h/mL and 0.97327 µg·h/mL and 1.34494 µg·h/mL and 0.61486 µg·h/mL and 0.8253 µg·h/mL and 0.78274 µg·h/mL | CL/F [8]: 161138.94 mL/h and 174518.59 mL/h and 139032.26 mL/h and 271340.46 mL/h and 232527.11 mL/h and 204784.12 mL/h | Cmax [8]: 0.01877 µg/mL and 0.02735 µg/mL and 0.04246 µg/mL and 0.02341 µg/mL and 0.03631 µg/mL and 0.0299 µg/mL | Kel [8]: 0.01 1/hr and 0.03 1/hr (3×) and 0.05 1/hr (2×) | Tmax [8]: 6.00 h and 8.00 h | T½ [8]: 68.82 h and 24.69 h and 15.32 h and 24.50 h and 15.26 h and 27.53 h | V/F [8]: 15999011.64 mL and 6215853.68 mL and 3073693.76 mL and 9591266.45 mL and 5119460.58 mL and 8132757.78 mL | % AUCexp [9]: 25.23% | AUCO-inf [9]: 1.79936 µg·h/mL | AUCO-t [9]: 1.04559 µg·h/mL | CL/F [9]: 222300.98 mL/h | Cmax [9]: 0.02816 µg/mL | Kel [9]: 0.02 h⁻¹ | Tmax [9]: 7.11 h | T½ [9]: 42.43 h | V/F [9]: 13606337.94 mL | % AUCexp [10]: 36.21% | AUCO-inf [10]: 2.49419 µg·h/mL | AUCO-t [10]: 1.14877 µg·h/mL | CL/F [10]: 300584.11 mL/h | Cmax [10]: 0.02904 µg/mL | Kel [10]: 0.02 h⁻¹ | Tmax [10]: 7.33 h | T½ [10]: 57.04 h | V/F [10]: 15172419.27 mL | % AUCexp [11]: 33.41% | AUCO-inf [11]: 2.02933 µg·h/mL | AUCO-t [11]: 1.08921 µg·h/mL | CL/F [11]: 197696.44 mL/h | Cmax [11]: 0.02844 µg/mL | Kel [11]: 0.02 h⁻¹ | Tmax [11]: 6.00 h | T½ [11]: 39.03 h | V/F [11]: 12667205.14 mL | % AUCexp [12]: 73.99% and 4.55% and 35.27% and 11.36% and 31.55% and 60.51% | AUCO-inf [12]: 7.13899 µg·h/mL and 0.98105 µg·h/mL and 1.91871 µg·h/mL and 0.52098 µg·h/mL and 2.26543 µg·h/mL and 2.13996 µg·h/mL | AUCO-t [12]: 1.85679 µg·h/mL and 0.9364 µg·h/mL and 1.24203 µg·h/mL and 0.46179 µg·h/mL and 1.5506 µg·h/mL and 0.84503 µg·h/mL | CL/F [12]: 56030.30 mL/h and 407726.35 mL/h and 208473.83 mL/h and 767787.87 mL/h and 176567.28 mL/h and 186919.05 mL/h | Cmax [12]: 0.04112 µg/mL and 0.02638 µg/mL and 0.03049 µg/mL and 0.02186 µg/mL and 0.03426 µg/mL and 0.02015 µg/mL | Kel [12]: 0.00 1/hr and 0.05 1/hr and 0.02 1/hr (2×) and 0.03 1/hr and 0.01 1/hr | Tmax [12]: 10.00 h and 6.00 h | T½ [12]: 142.05 h and 13.66 h and 46.06 h and 24.18 h and 32.01 h and 84.28 h | V/F [12]: 11482617.37 mL and 8037364.81 mL and 13851792.91 mL and 26779550.10 mL and 8154849.30 mL and 22728341.15 mL
